Earlier results on one compound are cited in patent publication US20090093463A1, “NOVEL COMPOUNDS OF SUBSTITUTED AND UNSUBTITUTED ADAMANTYL AMIDES” (AGOURON PHARMACEUTICALS INC., priority 2004, published 2009).

The target in data set [1] is T1, 11-β-hsd-1 (Homo sapiens, UniProt P28845).
T1 construct: host or cells: normal subjects (in vivo)
To be noted: ingestion, normal subjects.

For data set [2], the target named is T1, 11-β-hsd-1. As to conditions: healthy human volunteers.

SMILES strings stand for the structures.

T1 sequence (P28845 whole entry): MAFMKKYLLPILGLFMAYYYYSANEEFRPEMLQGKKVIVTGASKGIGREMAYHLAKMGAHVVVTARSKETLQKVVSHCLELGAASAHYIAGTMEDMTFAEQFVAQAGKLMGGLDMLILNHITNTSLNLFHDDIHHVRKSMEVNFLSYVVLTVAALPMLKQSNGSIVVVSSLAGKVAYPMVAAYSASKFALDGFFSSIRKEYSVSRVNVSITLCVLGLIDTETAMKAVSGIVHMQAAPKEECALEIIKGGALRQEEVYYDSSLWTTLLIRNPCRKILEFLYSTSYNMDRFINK

`CC1(C)[C@@H](OC(=O)CCC(=O)O)CC[C@]2(C)[C@H]3C(=O)C=C4[C@@H]5C[C@@](C)(C(=O)O)CC[C@]5(C)CC[C@@]4(C)[C@]3(C)CC[C@@H]12` [carbenoxolone]: the “reduction of intraocular pressure” value in data set [1] is on record as 20%. Further, the hepatic insulin sensitivity entry in data set [2] is “improved”.
